Like-named read-outs stand apart in the source and are kept apart here.
Experiments:
[1] = tested on: apomorphine-induced vomiting; experiment: block of apomorphine-induced vomiting in dogs (antiemetic activity); assay type: in vivo, beagle dogs; details: Canis lupus familiaris, sc, read-out: ED50 (dose which protects 50% of the animals from emesis)
Experimental: The method used is described previously by P. A. J. Janssen and C. J. E. Niemegeers in: Arzneim. -Forsch. (Drug Res), 9, 765-767 (1959).
The compounds listed below were administered subcutaneously to beagle dogs at different doses and the animals were challenged 1 hour thereafter with a standard dose of 0.31 mg/kg (subcutaneous) of apomorphine.
The tables below give the ED50 values of a number of the compounds under consideration. As used herein, the ED50 value represents the dose which protects 50% of the animals from emesis.

[2] = tested on: apomorphine-induced phenomena: agitation and stereotypic chewing; experiment: The apomorphine test in rats (anti-apomorphine activity); assay type: in vivo, male Wistar rats; details: Rattus norvegicus, sc, read-out: LED (lowest effective dose), anti-apomorphine activity in rats
Experimental: The compounds of formula (I) are potent psychotropic agents and as such they can be used in the treatment of metal disorders such as, for example, personality and psycho-affective disorders and schizophrenia. The psychotropic activity of the subject compounds (I) is strongly evidenced by the experimental data obtained in the apomorphine test in rats, a test which is indicative for central nervous system depressant activity. The test was carried out following the procedure described hereafter and the experimental data which were obtained are summarized in table V wherein the compound numbers refer to the corresponding structures in the Tables I to IV.
The apomorphine test in rats
The experimental animals used in this test were adult male Wistar rats (weight 240 ± 10 g.). After an overnight fast, the animals were treated subcutaneously (1ml/100 g) with an aqueous solution of the compound under investigation and put into isolated observation cages.

[3] = beagle dogs, challenged 1 hour thereafter with 0.31 mg/kg s.c. apomorphine
[4] = 30 min before 1.25 mg/kg i.v. apomorphine hydrochloride, observed over 1 hour, Fisher exact probability test

SMILES	ED50 ([1]; 1 h) [mg/kg]	ED50 [1, 3] [mg/kg]	minimal effective dose [2] [mg/kg]	minimal effective dose [2, 4] [mg/kg]
O=C(NCCN1CCC2(CC1)C(=O)NCN2c1ccccc1)c1ccccc1	0.1			
COc1ccc(C(=O)NCCN2CCC3(CC2)C(=O)NCN3c2ccccc2)cc1	0.5			
O=C(NCCN1CCC2(CC1)C(=O)NCN2c1ccc(F)cc1)c1ccc(F)cc1[N+](=O)[O-]	0.03			
O=C(NCCN1CCC2(CC1)C(=O)NCN2c1ccc(F)cc1)c1ccccc1[N+](=O)[O-]	0.12			
O=C(NCCN1CCC2(CC1)C(=O)NCN2c1ccccc1)c1cccs1	0.45			
O=C(NCCN1CCC2(CC1)C(=O)NCN2c1ccccc1)c1cccc(Cl)c1	0.63			
O=C(NCCN1CCC2(CC1)C(=O)NCN2c1ccccc1)c1ccc(Cl)cc1	0.8			
O=C(NCCN1CCC2(CC1)C(=O)NCN2c1ccccc1)c1ccc(F)cc1[N+](=O)[O-]	0.25			
O=C(NCCN1CCC(n2c(=O)[nH]c3ccccc32)CC1)c1ccccc1		0.2		
O=C(NCCN1CCC(n2c(=O)[nH]c3ccccc32)CC1)c1ccc(F)cc1		0.12		
Cc1ccccc1C(=O)NCCN1CCC(n2c(=O)[nH]c3ccccc32)CC1		0.25		
O=C(NCCN1CCC(n2c(=O)[nH]c3ccccc32)CC1)c1ccc(F)cc1[N+](=O)[O-]		0.5		
Nc1ccccc1C(=O)NCCN1CCC(n2c(=O)[nH]c3cc(Cl)ccc32)CC1		0.45		
O=C(NCCN1CCC(n2c(=O)[nH]c3cc(Cl)ccc32)CC1)c1ccc(F)cc1[N+](=O)[O-]		0.25		
N#CCCn1c(=O)n(C2CCN(CCNC(=O)c3ccc(F)cc3)CC2)c2ccccc21		0.5		
O=C(NCCN1CC=C(n2c(=O)[nH]c3ccccc32)CC1)c1ccc(F)cc1		0.25		
O=C(NCCN1CCC2(CC1)C(=O)NCN2c1ccccc1)c1ccc(F)cc1 [Compound 2]	0.06		5	
O=C(NCCN1CCC2(CC1)C(=O)NCN2c1ccccc1)c1ccccc1Cl [Compound 3]	0.06		0.31	
O=C(NCCN1CCC2(CC1)C(=O)NCN2c1ccccc1)c1ccccc1Br [Compound 4]	0.25		2.5	
Cc1ccccc1C(=O)NCCN1CCC2(CC1)C(=O)NCN2c1ccccc1 [Compound 6]	0.1		2.5	

SMILES	ED50 ([1]; 1 h) [mg/kg]	ED50 [1, 3] [mg/kg]	minimal effective dose [2] [mg/kg]	minimal effective dose [2, 4] [mg/kg]
Cl.Nc1cc(F)ccc1C(=O)NCCN1CCC2(CC1)C(=O)NCN2c1ccccc1.O [Compound 7, 2-amino-4-fluoro-N-[2-(4-oxo-1-phenyl-1,3,8-triazaspiro[4,5]dec-8-yl)ethyl]benzamide hydrochloride hydrate]	0.004		2.5	
O=C(NCCN1CCC2(CC1)C(=O)NCN2c1ccc(F)cc1)c1ccc(F)cc1 [Compound 8]	0.015		10	
O=C(NCCN1CCC2(CC1)C(=O)NCN2c1ccc(F)cc1)c1ccc(F)cc1Cl [Compound 9]	0.002		0.63	
O=C(NCCN1CCC2(CC1)C(=O)NCN2c1ccc(F)cc1)c1ccccc1O [Compound 11]	0.2		10	
O=C(NCCN1CCC2(CC1)C(=O)NCN2c1ccc(F)cc1)c1ccccc1Cl [Compound 14]	0.004		0.63	
O=C(NCCN1CCC2(CC1)C(=O)NCN2c1ccccc1)c1ccccc1F [Compound 16]	0.25		1.25	
Cl.Nc1cc(F)ccc1C(=O)NCCN1CCC2(CC1)C(=O)NCN2c1ccc(F)cc1.O [Compound 20, 2-amino-4-fluoro-N-{2-[1-(4-fluorophenyl)-4-oxo-1,3,8-triazaspiro[4,5]dec-8-yl]ethyl}benzamide hydrochloride hydrate]	0.002		5	
O=C(NCCN1CCC2(CC1)C(=O)NCN2c1ccccc1)c1ccc(F)cc1Cl [Compound 21]	0.015		2.5	
Nc1ccccc1C(=O)NCCN1CCC2(CC1)C(=O)NCN2c1ccc(F)cc1 [Compound 23]	0.008		2.5	
Cn1cccc1C(=O)NCCN1CCC2(CC1)C(=O)NCN2c1ccc(F)cc1 [Compound 24]	0.25		10	
CC(=O)Nc1cc(F)ccc1C(=O)NCCN1CCC2(CC1)C(=O)NCN2c1ccc(F)cc1 [Compound 25]	0.07		5	
O=C(NCCN1CCC(n2c(=O)[nH]c3ccccc32)CC1)c1ccccc1F [Compound 27]		0.5		5
O=C(NCCN1CCC(n2c(=O)[nH]c3cc(Cl)ccc32)CC1)c1ccc(F)cc1 [Compound 31]	0.08		5	
O=C(NCCN1CCC(n2c(=O)[nH]c3cc(Cl)ccc32)CC1)c1ccc(F)cc1Cl [Compound 32]		0.03		1.25
Nc1cc(F)ccc1C(=O)NCCN1CCC(n2c(=O)[nH]c3ccccc32)CC1 [Compound 33]		0.03		5
O=C(NCCN1CCC(n2c(=O)[nH]c3ccccc32)CC1)c1ccccc1Cl [Compound 34]		1.5		5
Nc1ccccc1C(=O)NCCN1CCC(n2c(=O)[nH]c3ccccc32)CC1 [Compound 36, 2-amino-N-{2-[4-(2,3-dihydro-2-oxo-1H-benzimidazol-1-yl)-1-piperidinyl]ethyl}benzamide hemihydrate]		0.1		
CC(=O)Nc1cc(F)ccc1C(=O)NCCN1CCC(n2c(=O)[nH]c3ccccc32)CC1 [Compound 37]		0.04		10
CC(=O)Nc1cc(F)ccc1C(=O)NCCN1CCC(n2c(=O)[nH]c3cc(Cl)ccc32)CC1 [Compound 38]		0.06		10
Nc1cc(F)ccc1C(=O)NCCN1CCC(O)(c2ccc(Cl)cc2)CC1 [Compound 40]	0.7		5	
